“Also recorded” adds a separate entry of the source.
Columns and labels:
[1] = tested on: NCI-H1650; assay: Drug-sensitivity screen of 40 cancer cell lines, NCI-H1650; type: cell-based, human; details: gefitinib 100 nM to 10 μM, 3 days, DNA staining; del E746-A750 EGFR
Protocol: (§1) Cells were cultured and analyzed in triplicate within microtiter plates. Cell numbers were quantitated by DNA staining, 3 days after addition of various concentrations of drugs and expressed as a fraction of matched untreated cultures. For each drug concentration, cell lines with relative drug sensitivity (<50% of untreated control growth) are shown in darkest staining, intermediate sensitivity (50-75%) in […], and drug insensitivity (>75%) in intermediate shading.
(§2) Cellular Proliferation and Viability Assays. […] For quantitation of cellular proliferation, cells were fixed at appropriate time points in 4% paraformaldehyde, and all plates were stained simultaneously by using the fluorescent nucleic acid stain SYTO60 (Molecular Probes) at 1:8,000 dilution in PBS. Quantitation was done by measuring the […] at 700 nm by using the Odyssey Imaging System (LI-COR, Lincoln, Nebr.). The relative cell number was obtained by normalizing treated samples to matched untreated specimens. For quantitation of cell viability, cultures were stained after 4 days by using the MTT assay. Briefly, 10 μl of 5 mg/ml MTT (Thiazolyl blue) solution was added to each well and incubated for 2 h at 37° C. […] The results were quantitated spectrophotometrically by using a test wavelength of 570 nm and a reference wavelength of 630 nm.

[2] = tested on: NCI-H1975 NSCLC cell line; assay: Drug-sensitivity screen of 40 cancer cell lines, NCI-H1975; type: cell-based, human; details: gefitinib; L858R and T790M EGFR
Protocol: as §1, §2

[3] = tested on: MET; details: Morotti et al. 2002; cited from earlier work
[4] = tested on: MET; details: Morotti et al. 2002; cited from earlier work; remark: listed apart in the source
[5] = tested on: GTL-16 gastric carcinoma cells; details: GTL-16 cells; cited from earlier work
[6] = tested on: Amp− cells; assay: MTT viability, gastric cancer cell lines without MET amplification; type: cell-based, human; details: 12 of 12 Amp− cell lines, 96 h
[7] = tested on: Amp− cells; assay: Growth curve (SYTO60), Amp− cells; type: cell-based, human; details: 1 μM, up to 6 days
[8] = tested on: Amp+ cells; assay: MTT viability, gastric cancer cell lines with MET amplification; type: cell-based, human; details: 5 of 5 Amp+ cell lines, 96 h
[9] = tested on: Amp+ cells; assay: Apoptosis induction (cleaved caspase-3 staining, PARP cleavage), Amp+ cells; type: cell-based, human
Protocol: (§3) Cells are costained with DAPI to show nuclei.
Cells were plated on coverslips in 12-well dishes and grown to approximately 75% confluency in 10% serum. […] After 72 h the cells were fixed with 4% paraformaldehyde for 20 minutes. Permeabilization with 1% NP40 for 5 minutes was followed by blocking with 3% BSA for 30 minutes. The coverslips were then incubated overnight at 4° C. with cleaved caspase-3 antibody at 1:200 dilution. The next day, the coverslips were washed 3 times with PBS and incubated with a secondary antibody (goat anti-rabbit FITC-conjugated) for 1 h at 1:250 dilution. Following 5 washes with PBS, coverslips were mounted in Vectashield mounting medium containing DAPI (Vector Laboratories; Burlingame, Calif.).
Apoptosis Induction Assay. […] After 72 h, cells were fixed with 4% paraformaldehyde for 20 min, permeabilized by using 1% Nonidet P-40 for 5 min, and blocked with 3% BSA for 30 min. The coverslips were then incubated overnight at 4° C. with cleaved caspase-3 antibody at 1:200 dilution. The next day, the coverslips were washed three times with PBS and incubated with a secondary antibody (goat anti-rabbit FITC-conjugated) for 1 h at 1:250 dilution. After five washes with PBS, coverslips were mounted in Vectashield mounting medium containing DAPI (Vector Laboratories), and staining was visualized by fluorescent microscopy.

[10] = tested on: gastric cancer cell line MKN45; assay: Drug-sensitivity screen of 40 cancer cell lines, MKN45; type: cell-based, human; details: 3 days, DNA staining; MET-amplified line
Protocol: as §1, §2

[11] = tested on: MET; assay: Immunoblot of constitutive MET autophosphorylation in Amp+ cells; type: cell-based, human; details: 50 nM, 3 h
[12] = tested on: ERK1/2, AKT, STAT3, or FAK; assay: Immunoblot of baseline phosphorylation of downstream effectors in Amp− cells; type: cell-based, human; details: 3 h
Protocol: (§4) FIG. 3: Constitutive activation of MET and activation of downstream signaling pathways in Amp^+ cells. (FIG. 3A) MET is constitutively activated in the Amp^+ cells. […] (FIG. 3B) Effect of HGF on MET activation in Amp^+ and Amp^− cells (representative immunoblots). Cells were serum-starved for 24 h and treated with 40 ng/ml HGF for 10 minutes. Phosphorylation of MET (Y1234/1235) is unaltered in Amp^+ cells treated with HGF, but it is induced by HGF in Amp^− cells (total MET control).
as §3
(§5) Cells were either directly lysated in 2× sample buffer or in RIPA buffer (150 mM NaCl, 50 mM Tris pH 8.0, 1% NP40, 0.5% DOC, 0.1% SDS, 1 mM EDTA, 10 mM NaF, 1 mM Na-orthovanadate, 1× protease inhibitor cocktail (Roche; Indianapolis, Ind.)). Cell lysates were sonicated for 10 sec and cleared by centrifugation at 14,000 rpm for 10 min at 4° C. Cleared lysates were boiled in sample buffer and loaded onto 10% SDS-PAGE gel. For immunoblotting analysis, proteins were transferred onto Immobilon PVDF membrane (Millipore; Bedford, Mass.) and visualized with Western Lightning Plus chemiluminescence kit (Perkin Elmer; Boston, Mass.).

[13] = tested on: ERK1/2, AKT, STAT3, and FAK; assay: Immunoblot of baseline phosphorylation of downstream effectors in Amp+ cells; type: cell-based, human; details: 50 nM, 3 h
Protocol: as §4, §3, §5

Q: With `COc1cc2ncnc(Nc3ccc(F)c(Cl)c3)c2cc1OCCCN1CCOCC1` [gefitinib] as the compound, how does the “Extreme sensitivity (concentration)” value [1] read?
A: 100 nM

Q: What about the “sensitivity in the assay” value [2] of the same compound?
A: relatively resistant

Q: For `COC(=O)[C@@]1(O)C[C@H]2O[C@]1(C)n1c3ccccc3c3c4c(c5c6ccccc6n2c5c31)C(=O)NC4` [K252a], which “inhibition of Met mediated signals” value [3] is on record?
A: inhibit Met mediated signals at nanomolar concentrations

Q: And the Met autophosphorylation [4]?
A: inhibits Met autophosphorylation

Q: What about the Met-driven proliferation [5] of the same compound?
A: reduces Met-driven proliferation

Q: Which “effect on number of viable cells” value [6] does the source give for `Cc1[nH]c(/C=C2\C(=O)Nc3ccc(S(=O)(=O)Cc4c(Cl)cccc4Cl)cc32)c(C)c1C(=O)N1CCC[C@@H]1CN1CCCC1` [PHA-665752, (3Z)-5-[(2,6-dichlorobenzyl)sulfonyl]-3-[(3,5-dimethyl-4-{[(2R)-2-(pyrrolidin-1-ylmethyl)pyrrolidin-1-yl]carbonyl}-1H-pyrrol-2-yl)methylene]-1,3-dihydro-2H-indol-2-one] here?
A: resistant; also recorded: no effect

Q: And the “effect on proliferation rate” value [7]?
A: unaffected

Q: What about the “effect on number of viable cells” value [8] of the same compound?
A: dramatic decrease in the number of viable cells; also recorded: dramatic reduction in cell numbers

Q: And the induction of apoptosis ([9]; Amp+ cells, cleaved caspase-3 (1 μM, 72 h), PARP cleavage (500 nM, 72 h))?
A: apoptosis

Q: And the “course of cell death” value ([9]; MKN45 cells)?
A: more delayed but prolonged cell death

Q: What about the PARP-cleavage signal ([9]; SNU-5 cells, 72 h) of the same compound?
A: prominent PARP-cleavage signal

Q: And the “Extreme sensitivity (concentration)” value [10]?
A: 100 nM

Q: What about the “constitutive MET autophosphorylation” value [11] of the same compound?
A: effectively suppressed

Q: And the “baseline phosphorylation of ERK1/2, AKT, STAT3, FAK” value [12]?
A: no effect

Q: What about the “baseline phosphorylation of downstream effectors ERK1/2, AKT, STAT3, FAK” value [13] of the same compound?
A: effectively abrogated

Reference: US8652786B2, “Method for predicting responsiveness to drugs” (The General Hospital Corporation, priority 2005, dated 2014)
